Laboratory results as given in US8124645B2, “LPA receptor antagonist” (Ono Pharmaceutical Co., Ltd., priority 2002, dated 2012).

Molecular target: T1, human EDG-2 (Homo sapiens, UniProt Q92633)
T1 construct: expressed in transfected cells; host or cells: Chinese hamster ovary (CHO) cells
Assay: Evaluation of EDG-2 antagonistic activity by monitoring the change of intracellular calcium ion concentration
Format: cell-based
Conditions: CHO cells overexpressing human EDG-2 gene; LPA final concentration 100 nM; intracellular calcium ion concentration (Fura2-AM)
Experimental: A series of the procedure is based on the basic gene manipuration technique, that is gene overexpressed cells are prepared and a conventional method was utilized. The usual method of measurement was improved for getting enhancement of measurement precision and/or measurement sensitivity of the evaluation of compounds in the present invention. A detailed method of the experiment was shown in the following clause.
Evaluation of EDG-2 antagonistic activity by monitoring the change of intracellular calcium ion concentration
Evaluation of EDG-2 antagonistic activity was carried out by using Chinese hamster ovary (CHO) cells which overexpressed human EDG-2 gene. Those cells were cultured with Ham's F12 medium (GIBCO BRL company No. 11765-047) containing 10% FBS (fetal bovine serum), penicillin/streptomycin and blasticidin (5 μg/ml). At first in order to uptake Fura2-AM (Dojindo company No. 348-05831) into the cells, cells were incubated for 60 minutes at 37 degrees in Fura2-AM (5 μM) solution [Ham's F12 medium containing 10% FBS, 20 mM HEPES buffer (pH 7.4) and 2.5 mM probenecid (Sigma company No. P-8761)]. Next, it was washed with Hanks solution containing HEPES buffer (20 mM, pH 7.4) and probenecid (2.5 mM) once, and immersed into the Hanks solution. Plates were set in fluorescent drug screening system (Hamamatsu photonics company, FDSS-2000) and intracellular calcium ion concentration was measured for 30 seconds with no stimulation and then solution of the compound of the present invention of formula (I) was added. Five minutes after adding thereto LPA (final concentration: 100 nM) was added, the increase of intracellular calcium ion concentrations before and after the addition of LPA (excitation wave length: […]; fluorescent wave length: […]) were measured every 3 seconds. The compound of the present invention represented by the formula (I) was dissolved in dimethyl sulfoxide (DMSO), and it was added so that the final concentration became 1 nM to 10 μM. 1-oleoyl (18:1)-LPA (Sigma) or 1-linolenoyl (18:3)-LPA was used as LPA. […]

T1 sequence (Q92633 whole entry): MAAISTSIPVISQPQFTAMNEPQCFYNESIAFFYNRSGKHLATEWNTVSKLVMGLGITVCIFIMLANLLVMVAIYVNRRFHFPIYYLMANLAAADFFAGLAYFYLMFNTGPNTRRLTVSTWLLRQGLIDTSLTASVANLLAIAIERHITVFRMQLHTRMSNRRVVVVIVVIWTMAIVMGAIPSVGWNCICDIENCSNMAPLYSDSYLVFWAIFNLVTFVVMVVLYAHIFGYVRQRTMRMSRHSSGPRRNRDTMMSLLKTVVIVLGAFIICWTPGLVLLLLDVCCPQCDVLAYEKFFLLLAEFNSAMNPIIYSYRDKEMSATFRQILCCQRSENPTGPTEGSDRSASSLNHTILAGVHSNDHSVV

| Compound | IC50 [nM] |
| --- | --- |
| COc1cc(OC)cc(C(=O)N(CCCc2ccccc2)Cc2ccc(Oc3ccccc3C(=O)O)cc2)c1 [3(33), 2-(4-(N-(3,5-dimethoxyphenylcarbonyl)-N-(3-phenylpropyl)aminomethyl)phenyloxy)benzoic acid] | 95 |
| COc1cc(C(=O)C(CCCc2ccccc2)Cc2ccc(Oc3ccccc3C(=O)O)cc2)cc(OC)c1OC (stereo not drawn) [8(1), 2-(4-(2-(3,4,5-trimethoxyphenylcarbonyl)-5-phenylpentyl)phenyloxy)benzoic acid] | 110 |
| COc1cc(C(=O)N(CCCc2ccccc2)Cc2ccc(CC(=O)O)cc2)cc(OC)c1C [Example 2(4), (4-(N-(3,5-dimethoxy-4-methylphenylcarbonyl)-N-(3-phenylpropyl)aminomethyl)phenyl)acetic acid] | 150 |
